# Experimental data: PMC3197876 (Journal of medicinal chemistry, 2011)
# Entries after “also recorded” stand apart in the source; their conditions may differ. Where two headings read alike, the source gives them in different places.
# What was measured:
# [1] = test system: nine different CYP450 enzymes; test: CYP450 inhibition; type: in vitro ADME
# human α4β2-nAChR = human α4β2-nAChR (Homo sapiens, UniProt P17787+P43681); test: 86Rb+ efflux assay in SH-EP1-hα4β2 cells; conditions: 86Rb+ ion flux assay
# α4β2* nAChR (native) = α4β2* nAChR (native) (Rattus norvegicus, UniProt P09483+P12390); test: [3H]epibatidine binding competition, rat forebrain membranes
# [2] = molecular target: H1 histaminergic receptor (Homo sapiens, UniProt P35367); test: PDSP primary binding screen; conditions: read-out: %Inhibition H1
# BALB/cJ male mice = type: in vivo, mouse
# β2* nAChR = β2* nAChR (Mus musculus, UniProt O70174+Q9ERK7); test: β2* nAChR ex vivo receptor occupancy in the thalamus; conditions: for receptor occupancy at 3 mg/kg: mouse, ip, read-out: ex vivo receptor occupancy at β2* receptors
# M5 muscarinic receptor = molecular target: T1, M5 muscarinic receptor (Homo sapiens, UniProt P08912); test: PDSP primary binding screen; conditions: read-out: %Inhibition M5
# T1 sequence (P08912 1-532): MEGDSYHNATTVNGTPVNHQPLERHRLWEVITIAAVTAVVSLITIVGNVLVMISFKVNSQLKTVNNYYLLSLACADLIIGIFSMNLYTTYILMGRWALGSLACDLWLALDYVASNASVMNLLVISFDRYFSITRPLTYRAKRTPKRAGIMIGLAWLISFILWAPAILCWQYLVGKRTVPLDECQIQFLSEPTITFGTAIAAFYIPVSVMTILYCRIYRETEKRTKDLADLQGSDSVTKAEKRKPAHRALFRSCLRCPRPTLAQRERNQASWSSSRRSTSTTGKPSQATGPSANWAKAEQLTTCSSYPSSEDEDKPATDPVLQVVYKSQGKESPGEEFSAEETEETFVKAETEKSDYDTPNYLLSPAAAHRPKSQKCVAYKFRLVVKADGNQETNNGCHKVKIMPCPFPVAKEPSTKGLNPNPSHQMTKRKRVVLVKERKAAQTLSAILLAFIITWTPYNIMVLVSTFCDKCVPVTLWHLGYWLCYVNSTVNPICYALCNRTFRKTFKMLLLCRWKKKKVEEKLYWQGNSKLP
# [3] = molecular target: DAT: Dopamine Transporter (Homo sapiens, UniProt Q01959); test: PDSP primary binding screen; conditions: read-out: %Inhibition DAT
# [4] = In vitro metabolism with human liver microsomes; type: in vitro ADME; conditions: 1 µM
# [5] = In vitro metabolism with mouse liver microsomes; type: in vitro ADME; conditions: 1 µM
# 5-HT5A = 5-HT5A (Homo sapiens, UniProt P47898); test: PDSP primary binding screen; conditions: read-out: %Inhibition 5-HT5A
# β3 adrenergic receptor = β3 adrenergic receptor (Homo sapiens, UniProt P13945); test: PDSP primary binding screen; conditions: read-out: %Inhibition β3
# α4β2 nAChR = α4β2 nAChR (Rattus norvegicus, UniProt P09483+P12390); type: binding; conditions: ratio of Ki values
# [6] = intraperitoneal, 1 mg/kg, 30 min before test
Structure (SMILES),functional characterization at α4β2-nAChRs (human α4β2-nAChR),Ki (α4β2* nAChR (native)),immobility in forced swim test (BALB/cJ male mice; [6]),"immobility in forced swim test (BALB/cJ male mice; intraperitoneal, 3 mg/kg)","immobility in forced swim test (BALB/cJ male mice; oral, 10 mg/kg)",receptor occupancy at 3 mg/kg (β2* nAChR),selectivity for α4β2- over α3β4-nAChR (α4β2 nAChR),other results
"Cl.OCCCc1cc(-c2cncc(OC[C@@H]3CCN3)c2)on1 [Compound 3, 3-[5-[5-(2(S)-Azetidinylmethoxy)-3-pyridyl]-3-isoxazolyl]-1-propanol Hydrochloride]",partial agonist,1.9 ± 0.3 nM,insignificant trend,significant reduction in immobility,decreased the time immobile; also recorded: reduced immobility,60 to 70%,"~15,000 fold","inhibitory potential towards nine different CYP450 enzymes [1]: no significant inhibition; inhibition at 10 µM [2]: -19.9%; immobility in forced swim test (BALB/cJ male mice; oral, 1 and 3 mg/kg): failed to show significant activity; immobility in forced swim test (Figure 5) (BALB/cJ male mice; oral, lowest dose): slightly higher; inhibition at 10 µM (M5 muscarinic receptor): -18.9%; inhibition at 10 µM [3]: -10.1%; metabolism with human liver microsomes [4]: no detectable metabolism; metabolism with mouse liver microsomes [5]: no detectable metabolism; inhibition at 10 µM (5-HT5A): -17.8%; inhibition at 10 µM (β3 adrenergic receptor): -17.7%"
"Cl.OCc1cc(-c2cncc(OC[C@@H]3CCN3)c2)on1 [Compound 4, 5-[5-(2(S)-Azetidinylmethoxy)-3-pyridyl]-3-isoxazolylmethanol Hydrochloride]",partial agonists,0.61 ± 0.1 nM,,,,60 to 70%,"20,000 fold","immobility in forced swim test (Figure 3) (BALB/cJ male mice; intraperitoneal, highest dose only): insignificant trend"
"Cl.OCCc1cc(-c2cncc(OC[C@@H]3CCN3)c2)on1 [Compound 5, 2-[5-[5-(2(S)-Azetidinylmethoxyl)-3-pyridyl]-3-isoxazolyl]ethanol Hydrochloride]",,,significant reduction in immobility,significant reduction in immobility,decreased the time immobile,~80%,,"immobility in forced swim test (Figure 5) (BALB/cJ male mice; oral, all doses tested): efficacious; receptor occupancy (Figure 4, in words) (β2* nAChR; 3 mg/kg intraperitoneal, mice): higher receptor occupancy"
"CN[C@H]1CC[C@@H](c2ccc(Cl)c(Cl)c2)c2ccccc21 [sertraline, reference compound]",,,,,,,,"immobility in forced swim test (Figure 5) (BALB/cJ male mice; positive control in oral study, 10 or 20 mg/kg): expected decrease in immobility; immobility in forced swim test (Figure 3) (BALB/cJ male mice; positive control, intraperitoneal, 10 or 20 mg/kg): expected decrease in immobility"
